ChEMBL document CHEMBL1201862, “PubChem BioAssay data set” (2004)
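Cultured in 96-well plates, cells were exposed to test compound for 48 hours across five concentrations. At the GI50, growth is halved.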 Activity calls are given as the source filed them. No stated cut-off is given here; in the data, active = GI50 up to about 1.1 µM and inactive = higher.

Key:
Test in all cases: inhibition of tumour cell growth, NCI panel, 48 h
[1] = system: 786-0
[2] = system: A498
[3] = system: ACHN
[4] = system: DU-145
[5] = system: K562
[6] = system: KM12
[7] = system: LOX IMVI
[8] = system: NCI-H23
[9] = system: NCI/ADR-RES
[10] = system: OVCAR-3
[11] = system: OVCAR-4
[12] = system: OVCAR-5
[13] = system: OVCAR-8
[14] = system: PC-3
[15] = system: SF-268
[16] = system: SK-MEL-5
[17] = system: SK-OV-3
[18] = system: SR
[19] = system: UO-31
[20] = system: MDA-MB-231

## N=C(N)N/N=C/c1c(Cl)nc2n1CCS2
[1]
  GI50: 49.4 µM (inactive)
[2]
  GI50: 90.8 µM (inactive)
[3]
  GI50: 54.7 µM (inactive)
[4]
  GI50: 90.2 µM (inactive)
[5]
  GI50: 53.2 µM (inactive)
[6]
  GI50: 34.8 µM (inactive)
[7]
  GI50: > 100 µM (inactive)
[8]
  GI50: 96.2 µM (inactive)
[9]
  GI50: > 100 µM (inactive)
[10]
  GI50: 44.4 µM (inactive)
[11]
  GI50: > 100 µM (inactive)
[12]
  GI50: 76.9 µM (inactive)
[13]
  GI50: > 100 µM (inactive)
[14]
  GI50: 66.5 µM (inactive)
[15]
  GI50: 50.8 µM (inactive)
[16]
  GI50: > 10 µM (inactive)
[17]
  GI50: 57.3 µM (inactive)
[18]
  GI50: 50.5 µM (inactive)
[19]
  GI50: > 100 µM (inactive)

## COc1nc(N)nc2c1n(C)c[n+]2C
[1]
  GI50: > 100 µM (inactive)
[2]
  GI50: > 100 µM (inactive)
[3]
  GI50: > 100 µM (inactive)
[4]
  GI50: > 100 µM (inactive)
[5]
  GI50: > 100 µM (inactive)
[6]
  GI50: > 100 µM (inactive)
[7]
  GI50: > 100 µM (inactive)
[20]
  GI50: > 100 µM (inactive)
[8]
  GI50: > 100 µM (inactive)
[9]
  GI50: > 100 µM (inactive)
[10]
  GI50: > 100 µM (inactive)
[12]
  GI50: > 100 µM (inactive)
[13]
  GI50: > 100 µM (inactive)
[14]
  GI50: > 100 µM (inactive)
[15]
  GI50: > 100 µM (inactive)
[16]
  GI50: > 100 µM (inactive)
[17]
  GI50: > 100 µM (inactive)
[19]
  GI50: > 100 µM (inactive)

## Cn1c2ccccc2c2c(=O)[nH]c(=O)[nH]c21
[1]
  GI50: > 100 µM (inactive)
[2]
  GI50: > 100 µM (inactive)
[3]
  GI50: > 100 µM (inactive)
[4]
  GI50: > 100 µM (inactive)
[5]
  GI50: > 100 µM (inactive)
[6]
  GI50: > 100 µM (inactive)
[7]
  GI50: > 100 µM (inactive)
[20]
  GI50: > 100 µM (inactive)
[8]
  GI50: > 100 µM (inactive)
[9]
  GI50: > 100 µM (inactive)
[10]
  GI50: > 100 µM (inactive)
[12]
  GI50: > 100 µM (inactive)
[13]
  GI50: > 100 µM (inactive)
[15]
  GI50: > 100 µM (inactive)
[16]
  GI50: > 100 µM (inactive)
[17]
  GI50: > 100 µM (inactive)
[18]
  GI50: > 100 µM (inactive)
[19]
  GI50: > 100 µM (inactive)

## CC1=C(/C=C/C(C)=C/C=C/C(C)=C/C=C/C=C(C)/C=C/C=C(C)/C=C/C2=C(C)C(=O)C(O)CC2(C)C)C(C)(C)CC(O)C1=O (stereo unspecified)
[1]
  GI50: > 100 µM (inactive)
[2]
  GI50: > 100 µM (inactive)
[3]
  GI50: > 100 µM (inactive)
[5]
  GI50: > 100 µM (inactive)
[6]
  GI50: > 100 µM (inactive)
[7]
  GI50: > 100 µM (inactive)
[8]
  GI50: > 100 µM (inactive)
[10]
  GI50: > 100 µM (inactive)
[11]
  GI50: > 100 µM (inactive)
[12]
  GI50: > 100 µM (inactive)
[13]
  GI50: > 100 µM (inactive)
[15]
  GI50: > 100 µM (inactive)
[16]
  GI50: > 100 µM (inactive)
[17]
  GI50: > 100 µM (inactive)
[18]
  GI50: > 100 µM (inactive)
[19]
  GI50: > 100 µM (inactive)

## Cc1cc(N(CCC#N)S(C)(=O)=O)ccc1C=O
[1]
  GI50: > 100 µM (inactive)
[2]
  GI50: > 100 µM (inactive)
[3]
  GI50: > 100 µM (inactive)
[5]
  GI50: > 100 µM (inactive)
[6]
  GI50: > 100 µM (inactive)
[7]
  GI50: > 100 µM (inactive)
[8]
  GI50: > 100 µM (inactive)
[10]
  GI50: > 100 µM (inactive)
[11]
  GI50: > 100 µM (inactive)
[12]
  GI50: > 100 µM (inactive)
[13]
  GI50: > 100 µM (inactive)
[15]
  GI50: > 100 µM (inactive)
[16]
  GI50: > 100 µM (inactive)
[17]
  GI50: > 100 µM (inactive)
[18]
  GI50: > 100 µM (inactive)
[19]
  GI50: > 100 µM (inactive)

## CN(Cc1cnc2nc(N)nc(N)c2n1)c1ccc(C(=O)NC(CCS(=O)(=O)O)C(=O)O)cc1 (stereo unspecified)
[1]
  GI50: 0.132 µM (active)
[2]
  GI50: > 100 µM (inactive)
[3]
  GI50: 0.527 µM (active)
[6]
  GI50: 0.661 µM (active)
[7]
  GI50: 0.103 µM (active)
[20]
  GI50: > 100 µM (inactive)
[8]
  GI50: 1.88 µM (inactive)
[9]
  GI50: 2.31 µM (inactive)
[10]
  GI50: 3.46 µM (inactive)
[11]
  GI50: > 100 µM (inactive)
[12]
  GI50: 0.144 µM (active)
[13]
  GI50: 21.9 µM (inactive)
[14]
  GI50: 0.0665 µM (active)
[15]
  GI50: 0.465 µM (active)
[16]
  GI50: 1.79 µM (inactive)
[17]
  GI50: > 100 µM (inactive)
[18]
  GI50: 0.136 µM (active)
[19]
  GI50: 2.72 µM (inactive)

## CCN1C(=O)C(=C/C=C/c2ccc(OC)cc2)C(=O)N(CC)C1=S
[1]
  GI50: 17.6 µM (inactive)
[3]
  GI50: 17.7 µM (inactive)
[4]
  GI50: 19.1 µM (inactive)
[5]
  GI50: 31.3 µM (inactive)
[6]
  GI50: 20.3 µM (inactive)
[7]
  GI50: 17.3 µM (inactive)
[20]
  GI50: 19.8 µM (inactive)
[8]
  GI50: > 100 µM (inactive)
[9]
  GI50: 13.8 µM (inactive)
[10]
  GI50: 16.6 µM (inactive)
[11]
  GI50: 95.5 µM (inactive)
[12]
  GI50: > 100 µM (inactive)
[13]
  GI50: 21.4 µM (inactive)
[14]
  GI50: 19.4 µM (inactive)
[15]
  GI50: 24.6 µM (inactive)
[16]
  GI50: 26.5 µM (inactive)
[17]
  GI50: 23.1 µM (inactive)
[19]
  GI50: 40.3 µM (inactive)

## c1ccc2c3nc(C4CCCC4)nc-3c(NC3CCCC3)[nH]c2c1
[1]
  GI50: 8.07 µM (inactive)
[2]
  GI50: 21.3 µM (inactive)
[3]
  GI50: 25.7 µM (inactive)
[5]
  GI50: 7.83 µM (inactive)
[6]
  GI50: 7.08 µM (inactive)
[7]
  GI50: 15.8 µM (inactive)
[8]
  GI50: 15.7 µM (inactive)
[10]
  GI50: 12.5 µM (inactive)
[11]
  GI50: 14.4 µM (inactive)
[12]
  GI50: 22.5 µM (inactive)
[13]
  GI50: 6.87 µM (inactive)
[15]
  GI50: 16.9 µM (inactive)
[16]
  GI50: 6.98 µM (inactive)
[17]
  GI50: 32.1 µM (inactive)
[18]
  GI50: 10.3 µM (inactive)
[19]
  GI50: 21.6 µM (inactive)

## N#Cc1c(O)c(/C=N/c2ncccn2)c(=O)n2c1[nH]c1ccccc12
[1]
  GI50: > 100 µM (inactive)
[2]
  GI50: > 100 µM (inactive)
[5]
  GI50: > 100 µM (inactive)
[6]
  GI50: > 100 µM (inactive)
[7]
  GI50: > 100 µM (inactive)
[20]
  GI50: > 100 µM (inactive)
[8]
  GI50: > 100 µM (inactive)
[9]
  GI50: > 100 µM (inactive)
[10]
  GI50: > 100 µM (inactive)
[11]
  GI50: > 100 µM (inactive)
[12]
  GI50: > 100 µM (inactive)
[13]
  GI50: > 100 µM (inactive)
[14]
  GI50: > 100 µM (inactive)
[15]
  GI50: > 100 µM (inactive)
[16]
  GI50: > 100 µM (inactive)
[17]
  GI50: > 100 µM (inactive)
[18]
  GI50: > 100 µM (inactive)
[19]
  GI50: > 100 µM (inactive)

## Nc1ccn(C2CCC(COP(=O)(O)OCC(O)COP(=O)(O)OCC3OC(n4cc(F)c(=O)[nH]c4=O)CC3O)O2)c(=O)n1 (stereo unspecified)
[1]
  GI50: > 76.4 µM (inactive)
[3]
  GI50: < 0.0106 µM (active)
[4]
  GI50: 0.165 µM (active)
[5]
  GI50: 2.61 µM (inactive)
[6]
  GI50: > 38.1 µM (inactive)
[7]
  GI50: < 0.0149 µM (active)
[20]
  GI50: 44.1 µM (inactive)
[8]
  GI50: 0.139 µM (active)
[9]
  GI50: 0.215 µM (active)
[10]
  GI50: 23.2 µM (inactive)
[11]
  GI50: > 23.7 µM (inactive)
[12]
  GI50: 9.93 µM (inactive)
[13]
  GI50: 0.157 µM (active)
[14]
  GI50: 2.01 µM (inactive)
[15]
  GI50: 0.0101 µM (active)
[16]
  GI50: 0.514 µM (active)
[17]
  GI50: 59.2 µM (inactive)
[19]
  GI50: 0.0622 µM (active)

## C[C@@]12CCC(=O)c3coc(c31)C(=O)c1cc3c(cc12)C(=O)C=CC3=O [HELENAQUINONE]
[1]
  GI50: 17.2 µM (inactive)
[2]
  GI50: > 100 µM (inactive)
[3]
  GI50: 16.5 µM (inactive)
[5]
  GI50: > 22.2 µM (inactive)
[6]
  GI50: 24.7 µM (inactive)
[7]
  GI50: 8.59 µM (inactive)
[8]
  GI50: 12.5 µM (inactive)
[10]
  GI50: 18.7 µM (inactive)
[11]
  GI50: 18.2 µM (inactive)
[12]
  GI50: 20 µM (inactive)
[13]
  GI50: 16.3 µM (inactive)
[15]
  GI50: 18.8 µM (inactive)
[16]
  GI50: 15.1 µM (inactive)
[17]
  GI50: > 100 µM (inactive)
[18]
  GI50: 30.1 µM (inactive)
[19]
  GI50: 17.2 µM (inactive)
